Laboratory results: patent US20090163521A1, “Novel Pyrazolopyrimidinone Derivatives” (ORCHID RESEARCH LABORATORIES LIMITED, priority 2005, published 2009)

Columns and labels:
TNF-α [1] = experiment: In vitro measurement of TNF-α in LPS-stimulated human PBMC; format: cell-based; settings: LPS 1 μg/ml, 18 h
Description: This assay determines the effect of test compounds on the production of TNF α in human Peripheral Blood Mononuclear Cells (PBMC). Compounds were tested for their ability to inhibit the activity of TNF α in human PBMC. PBMC were isolated from blood (from healthy volunteers) using BD Vacutainer CPT™ (Cell preparation tube, BD Bio Science) and suspended in RPMI medium (Physiol. Res. 52: 593-598, 2003). The test compounds were pre-incubated with PBMC (0.5 million/incubation well) for 15 minutes at 37° C. and then stimulated with Lipopolysaccharide (Escherichia coli: B4; 1 μg/ml) for 18 h at 37° C. in 5% CO2. The levels of TNFα in cell culture medium were estimated using enzyme linked Immunosorbent assay performed in a 96 well format as per the procedure of the manufacturer (Cayman Chemical, Ann Arbor, USA).

Rat Paw Edema model = experiment: Carrageenan induced paw edema test in rat; format: in vivo; settings: 5 mg/kg b. wt., p.o.; 3 hours after carrageenan
Description: The carrageenan paw edema test was performed as described by Winter et al (Proc. Soc. Exp. Biol. Med, 111, 544, 1962). Male wistar rats were selected with body weights equivalent within each group. The rats were fasted for eighteen hours with free access to water. The rats were dosed orally with the test compound suspended in vehicle containing 0.25% carboxymethylcellulose and 0.5% Tween 80. The control rats were administered with vehicle alone. After an hour, the rats were injected with 0.1 ml of 1% Carrageenan solution in 0.9% saline into the sub-plantar surface of the right hind paw. Paw volume was measured using digital plethysmograph before and after 3 hours of carrageenan injection. The average of foot swelling in drug treated animals was compared with that of control animals. Anti-inflammatory activity was expressed as the percentage inhibition of edema compared with control group [Arzneim-Forsch/Drug Res., 43 (1), 1, 44-50, 1993; Ottemess and Bliven, Laboratory Models for Testing NSAIDs, In Non-Steroidal Anti-Inflammatory Drugs, (J. Lombardino, ed. 1985)].

Ulcerogenic potential = format: in vivo, rat; settings: oral; 4 hrs after administration; dose selected 50, 100, 200 mg/kg
Description: In order to evaluate compound's role on the ulcer formation, the animals were sacrificed and the stomach was taken out and flushed with 1% formalin. Animals (male wistar 200 gm) were fasted for 18 hrs free access to water and the test compounds were suspended in 0.5% Tween 80 and 0.25% CMC (carboxymethylcellulose) solution to make a uniform suspension. After 4 hrs of oral administration of test compounds, all the animals were sacrificed by cervical dislocation. Dissect the stomach carefully and filled up with a sterile saline solution and embedded in 6% formalin solution. […] Compare the test compound treated groups with the vehicle treated groups. Dose selected: 50, 100, 200 mg/kg (Marco Romano et al, Journal of clinical Investigation, 1992; 2409-2421).

TNF-α [2] = experiment: LPS induced sepsis for measurement of TNF-α inhibition in mice; format: in vivo; settings: at 50 mg/kg, oral, serum 90 min after LPS
Description: The LPS induced sepsis model in mice was performed as described by Les sekut et al (J Lab Clin Med 1994; 124:813-20). Female Swiss albino mice were selected and the body weights were equivalent within each group. The mice were fasted for 20 hours with free access to water. The mice were dosed orally with the test compound suspended in vehicle containing 0.5% Tween 80 in 0.25% Carboxy-methylcellulose sodium salt. The control mice were administered the vehicle alone. After 30 min of oral dosing, mice were injected with 500 μg of Lipopolysaccharide (Escherichia coli, LPS: B4 from Sigma) in phosphate buffer saline solution into the intraperitoneal cavity of the mice. After 90 min of LPS administration mice were bled via retro-orbital sinus puncture. Blood samples were stored overnight at 4° C. Serum samples were collected by centrifuging the samples at 400 rpm for 15 min at 4° C. Immediately the serum samples were analysed for TNFα levels using commercially available mouse TNF-α ELISA kit (Amersham Biosciences) and assay was performed by the manufacturer instruction.

NCI-H460 = experiment: DTP human tumor cell line screen, NCI-H460; format: cell-based; settings: 100 μM; 48 hours; percent growth of control
Description: (§1) The current assay utilizes a 384 well plate format and fluorescent staining technologies resulting in greater screening capacity for testing of synthetic samples.
(§2) The cell lines of the cancer-screening panel are grown in RPMI 1640 medium containing 5% fetal bovine serum and 2 mM L-glutamine. For a typical screening experiment, cells are inoculated into 96 well microtiter plates in 100 μL. After cell inoculation, the micro-titer plates are incubated at 37° C., 5% CO2, 95% air and 100% relative humidity for 24 h prior to addition of experimental drugs. The cells are plated a densities of 5000 cells/well (MCF7), 1000 cells/well (NCI-H460), and 7500 cells/well (SF-268) to allow for varying doubling time of the cell lines. Each plate contains all three-cell lines, a series of dilutions of standard agents, total kill wells and appropriate controls. Plates are incubated under standard conditions for 24 hours prior to addition of experimental compounds or extracts.
(§3) Experimental compounds are solubilized in dimethyl sulfoxide (DMSO) at 400-times the desired maximum test concentration (maximum final DMSO concentration of 0.25%) and stored frozen. Compounds are then diluted with complete media with 0.1% gentamicin sulfate (5 μl of test sample in 100% DMSO is added to 565 μl of complete medium). 20 μl of this solution is then dispensed into test wells containing 50 μl of cell suspension to yield a test concentration of 1.00E-04M.
(§4) After compound addition, plates are incubated at standard conditions for 48 hours, 10 μl/well Alamar Blue is added and the plates are incubated for an additional 4 hours. Fluorescence is measured using an excitation wavelength of 530 nm and an emission wavelength of 590 nm.
(§5) Percent growth is calculated on a plate-by-plate basis for test wells relative to control wells. Percent Growth is expressed as the ratio of fluorescence of the test well to the average fluorescence of the control wells ×100.

MCF-7 = experiment: DTP human tumor cell line screen, MCF-7; format: cell-based; settings: 100 μM; 48 hours; percent growth of control
Description: as §1, §2, §3, §4, §5

SF-268 = experiment: DTP human tumor cell line screen, SF-268; format: cell-based; settings: 100 μM; 48 hours; percent growth of control
Description: as §1, §2, §3, §4, §5

SMILES: CSc1ccc(-c2nc3[nH]nc(N)c3c(=O)n2-c2ccc(C)c(C)c2)cc1 [Example 2, 3-amino-5-(3,4-dimethylphenyl)-6-[4-(methylthio)phenyl]-1,5-dihydro-4H-pyrazolo[3,4-d]pyrimidin-4-one]
- inhibition at 10 µM (TNF-α [1]): 53.4%
- Rat Paw Edema model % Inhibition (Rat Paw Edema model): 30.52 ± 10.3%
- Ulcer Incidence (Number of animals/Total number of animals) (Ulcerogenic potential): No ulcer
- TNF-α Inhibition (%) (TNF-α [2]): 34.29 (at 50 mg/kg) %
- % T/C Lung (NCI-H460) (NCI-H460): 7%
- % T/C Breast (MCF-7) (MCF-7): 31%
- % T/C CNS (SF-268) (SF-268): 39%
- melting point: 263 to 266 °C
